In US20250040503A1, “METHOD FOR PRODUCING HAPLOID, AND DOUBLED HAPLOID BETA VULGARIS PLANTS BY MICROSPORE CULTURE” (KWS SAAT SE & Co. KGaA, priority 2021, published 2025):
Entries after “also recorded” stand apart in the source; their conditions may differ.

System: Beta vulgaris (sugar beet) microspores
Assay: Callus induction from isolated sugar beet microspores (microspore culture)
Assay type: cell-based
Details: for callus induction potential in comparison to TSA: comparator TSA 5 μM, same time point, duration and buffer
Source text: The experimental set-up is detailed in the below Examples. In the Figures, each column represents a different genotype. […] Time point, duration and buffer used were always identical for all treatments in the different rows. The different rows thus only differ from each other in the kind of inhibitor used.
Bracteoles are cut off the inflorescence and buds bigger than 1.8 mm are removed. Remaining part is divided into smaller pieces, preferably pieces of 1-1.5 cm. Buds smaller than 1.8 mm contain typically microspores at the tetrad and uninuclear developmental stage, which are the optimal developmental stages for further progressing. However, it should be noted that due to broad variation of different genotypes and donor sources (e.g., monogerm and multigerm), the correlation between the maximum flower bud size and nuclear stages of the microspores needs to be established for each genotype individually. The determination of the nuclear stages is carried out using a fluorescence-based staining method. The method contains fixation of the cells for instances with Ethanol acetic acid and DAPI staining (Kim, Moon-Za, and In-Chang Jang. “Rapid Assessment of Microspore Development Stage in Pepper Using DAPI and Ferric chloride.” Journal of Plant Biotechnology 2.3 (2000): 129-134.).
The flower shoot segments are transferred to isolation buffer, e.g., in a blending device and 40 ml (isolation buffer, Table 1) is added. The Isolation buffer contains macro- and microsalts, amino acids, monosaccharides and one or more complex protein compositions, pH is adjusted to pH 7.5. The complex protein composition or its source comprises preferably hydrolysed or partially hydrolysed protein matter or protein source. It can derive from any source that is known or that be applicable in addition, such as milk (such as, casein, whey), animal (such as, meat, fish), cereal (such as, rice, corn), plant (such as, soybean) or its combination. This proteinoid comprises milk protein isolates, as described herein lactoprotein concentrate, casein isolates, casein hydrolysate, lactalbumin, casein-sodium or calcium caseinate, full cow's milk, partially or completely skimmed milk, soy protein isolate, soybean protein concentrate etc. In one embodiment, complex protein composition comprises the protein source of the milk protein deriving from bovine milk.
The material is homogenized, e.g., by means of a homogenizer such as a Waring blender or sonication device at around 3000 rpm for 1 min. The crude cell suspension is passed stepwise through cell strainers of pore sizes between 25 μm and 100 μm. The purified suspension is transferred into tubes for subsequent centrifugation at ˜200 g for 3 min.
The supernatant is removed and the pellet is resuspended in a suitable amount of isolation buffer. An aliquot of the cell solution is taken for evaluation of the number of cells per ml by means of a counting chamber. Cell density is adjusted preferably to a cell density of 25,000 to 500,000 cells with TM media.
If the HDACi trichostatin A (TSA) is used, it is dissolved in dimethylsulfoxide (DMSO) to a final concentration of between 1 nM and 10 μM, preferably 100 nM to 10 μM, more preferably 1 μM to 10 μM, depending on the genotype and the donor sources (e.g., monogerm and multigerm). Other non-limiting examples of HDACi which may be used belong to the class of hydroxamic acids and hydroxamates, such as vorinostat (SAHA), belinostat (PXD101), LAQ824, and panobinostat (LBH589). Other non-limiting examples of HDACis for use according to the invention include cyclic tetrapeptides (such as trapoxin B) and depsipeptides, such as romidepsin (FK228), benzamides such as entinostat (MS-275), C1994, and mocetinostat (MGCD0103), electrophilic ketones, and aliphatic acid compounds such as phenylbutyrate and valproic acid.
After 1 to 10 days incubation at 32° C. the TSA is removed by centrifugation preferably at ˜200 g.

`O=C(CCCCCCC(=O)Nc1ccccc1)NO` [SAHA, vorinostat] was tested, and the “toxicity in comparison to TSA” value (SAHA 1 μM and 5 μM vs TSA 5 μM, microspore culture) was “more toxic”, the callus induction (SAHA 1 μM and 5 μM, same buffer as TSA, six genotypes, FIG. 4) was “good effect on some genotypes” and the “callus induction potential in comparison to TSA” value (“callus induction potential” below) was “less effective than TSA”.
For `CC(=O)N1c2ccc(-c3ccc(C(=O)O)cc3)cc2[C@H](Nc2ccc(Cl)cc2)C[C@@H]1C` [I-Bet 726], the callus induction (I-Bet 726 1 μM, 2.5 μM and 5 μM, FIG. 7) was “No callus induction”.
For `CC(/C=C/C(=O)NO)=C\[C@@H](C)C(=O)c1ccc(N(C)C)cc1` [TSA, trichostatin A], the callus induction (TSA 5 μM, six genotypes, positive control of FIG. 4 to FIG. 7) was “strong callus induction in all six genotypes”, the “callus induction performance at other concentrations” value (TSA in the lower μM or even nM range and in higher concentrations, data not shown) was “performed well” and the “callus induction potential” value was “performed best”.
`Cc1sc2c(c1C)C(c1ccc(Cl)cc1)=N[C@@H](CC(N)=O)c1nnc(C)n1-2` [CPI-203] was tested, and the callus induction (CPI-203 1 μM, 2.5 μM and 5 μM, 6 genotypes, FIG. 6) was “slight positive effect; also recorded: very small, but positive, effect” and the “callus induction potential” value was “performed worse than TSA”.
